Results from patent US20250064945A1 (Arvinas Operations, Inc., priority 2021, published 2025).

Target: T1, BRM (Homo sapiens, UniProt P51531)
T1 construct: In-Cell Western Screen of BRM Degradation in SW1573 Cells; endogenous in cells; host or cells: SW1573 cells
Assay: Western blot / In-Cell Western screen of BRM degradation in SW1573 cells
Format: cell-based
Conditions: overnight (18-20 hours) treatment; for Dmax: read-out: Dmax (%) (% degraded)
Method: Western Blot Screen of BRM Degradation in SW1573 Cells
(§1) To assess BRM degradation (Dmax and DC50) cells were seeded at 8000/well in 96-well black/clear-bottom plates in 180 μL DMEM growth media (containing 1% pen-strep, 1% HEPES and 10% FBS) per well. Plates were incubated overnight to allow adhesion. The next morning cells were treated by adding 20 μL of 10× target compound concentration (1% DMSO) to appropriate wells and returned to incubator for overnight (18-20 hours). The final DMSO concentration was 0.1%.
For lysing, adherent cells were washed once with 100 μL of DPBS. Cells were lysed in 40 μL of 1× RIPA+HALT protease inhibitor on ice for 10 minutes and frozen until use at −80° C. Thawed lysates were cleaned by filtration in 1.2 µm filter plates, or alternatively, were spun clean at 2300 g at 4° C. for 30 minutes.
For blotting, for each Western sample 30 μL of lysate was added to 10 μL of 4×LDS sample buffer, then denatured at 95° C. for 5 minutes in the thermal cycler and placed on ice. Samples were loaded on 4-15% Tris/Glycine gels and run for 25 minutes at 250 constant volts in 1×Tris/Glycine buffer with 4 μL of ladder and 12 μL of each sample loaded for each blot. Protein was transferred from gels to NC with BioRad Turbo dry-transfer unit with the Turbo/midi default program. All blots were rinsed with ddH2O and blocked for 1 hour at room temperature in 5% BSA in TBST (0.1%) on rocker. Blots were exposed to primary antibody in 5% BSA in TBST (0.1%) overnight at 4° C. on rocker (1:1000 for BRM (Cell Signaling Tech. cat #11966) and 1:2000 for alpha-tubulin (Cell Signaling Tech. cat #3873), a control protein. Blot was washed with TBST (0.1%) three times for 5 minutes on rocker at room temperature. Secondary antibody was added, and blots were incubated on a room temperature rocker for 1 hour with 1:18,000 anti-rabbit-HRP and/or anti-mouse-HRP in 5% BSA in TBST (0.1%). Blots were washed three times in TBST (0.1%) for 5 minutes at room temperature on the rocker. Signal was developed with Femto Maximum Sensitivity substrate for 4 minutes and blots read on ChemiDoc™.
In-Cell Western Screen of BRM Degradation in SW1573 Cells
as §1, with “DC50),” for “DC50)”, “10×” for “10× target”, “compound” for “compound concentration”
For processing, the plates were removed from incubator, the media was removed, and immediately 200 μL of cold (4° C.) DPBS was added to all wells. DPBS was then removed, and 50 μL of 4% paraformaldehyde (PFA) in DPBS (4° C.) was added to all wells, and the plates were incubated at room temperature for 20 minutes. PFA was then removed, and 200 μL of TBS-T containing 0.5% Triton X-100 was added to all wells, and the plates were incubated at room temperature for 30 minutes. TBS-T containing 0.5% Triton X-100 was then removed, and 50 μL of Li-Cor blocking solution was added, and the plates were incubated at room temperature for a minimum of one hour. The blocking solution was removed, and 50 μL of Li-Cor blocking solution containing primary antibody cocktail was added (1:1000 for BRM (Cell Signaling Tech. cat #11966) and 1:2000 for alpha-tubulin (Sigma cat #T6074), a control protein. Plates were then placed in cold room until the next day.
The next day plates were washed three times with TBS-T, 200 μL per well. Fifty […] of secondary antibody cocktail in LI-COR blocking solution (anti-rabbit_800 nm and anti-mouse_680 nm) was added to all wells (diluted 1:5000). The plates were incubated at room temperature for at least one hour while protected from light. The plates were washed twice with TBS-T, 200 μL per well. […]

T1 sequence (P51531 whole entry): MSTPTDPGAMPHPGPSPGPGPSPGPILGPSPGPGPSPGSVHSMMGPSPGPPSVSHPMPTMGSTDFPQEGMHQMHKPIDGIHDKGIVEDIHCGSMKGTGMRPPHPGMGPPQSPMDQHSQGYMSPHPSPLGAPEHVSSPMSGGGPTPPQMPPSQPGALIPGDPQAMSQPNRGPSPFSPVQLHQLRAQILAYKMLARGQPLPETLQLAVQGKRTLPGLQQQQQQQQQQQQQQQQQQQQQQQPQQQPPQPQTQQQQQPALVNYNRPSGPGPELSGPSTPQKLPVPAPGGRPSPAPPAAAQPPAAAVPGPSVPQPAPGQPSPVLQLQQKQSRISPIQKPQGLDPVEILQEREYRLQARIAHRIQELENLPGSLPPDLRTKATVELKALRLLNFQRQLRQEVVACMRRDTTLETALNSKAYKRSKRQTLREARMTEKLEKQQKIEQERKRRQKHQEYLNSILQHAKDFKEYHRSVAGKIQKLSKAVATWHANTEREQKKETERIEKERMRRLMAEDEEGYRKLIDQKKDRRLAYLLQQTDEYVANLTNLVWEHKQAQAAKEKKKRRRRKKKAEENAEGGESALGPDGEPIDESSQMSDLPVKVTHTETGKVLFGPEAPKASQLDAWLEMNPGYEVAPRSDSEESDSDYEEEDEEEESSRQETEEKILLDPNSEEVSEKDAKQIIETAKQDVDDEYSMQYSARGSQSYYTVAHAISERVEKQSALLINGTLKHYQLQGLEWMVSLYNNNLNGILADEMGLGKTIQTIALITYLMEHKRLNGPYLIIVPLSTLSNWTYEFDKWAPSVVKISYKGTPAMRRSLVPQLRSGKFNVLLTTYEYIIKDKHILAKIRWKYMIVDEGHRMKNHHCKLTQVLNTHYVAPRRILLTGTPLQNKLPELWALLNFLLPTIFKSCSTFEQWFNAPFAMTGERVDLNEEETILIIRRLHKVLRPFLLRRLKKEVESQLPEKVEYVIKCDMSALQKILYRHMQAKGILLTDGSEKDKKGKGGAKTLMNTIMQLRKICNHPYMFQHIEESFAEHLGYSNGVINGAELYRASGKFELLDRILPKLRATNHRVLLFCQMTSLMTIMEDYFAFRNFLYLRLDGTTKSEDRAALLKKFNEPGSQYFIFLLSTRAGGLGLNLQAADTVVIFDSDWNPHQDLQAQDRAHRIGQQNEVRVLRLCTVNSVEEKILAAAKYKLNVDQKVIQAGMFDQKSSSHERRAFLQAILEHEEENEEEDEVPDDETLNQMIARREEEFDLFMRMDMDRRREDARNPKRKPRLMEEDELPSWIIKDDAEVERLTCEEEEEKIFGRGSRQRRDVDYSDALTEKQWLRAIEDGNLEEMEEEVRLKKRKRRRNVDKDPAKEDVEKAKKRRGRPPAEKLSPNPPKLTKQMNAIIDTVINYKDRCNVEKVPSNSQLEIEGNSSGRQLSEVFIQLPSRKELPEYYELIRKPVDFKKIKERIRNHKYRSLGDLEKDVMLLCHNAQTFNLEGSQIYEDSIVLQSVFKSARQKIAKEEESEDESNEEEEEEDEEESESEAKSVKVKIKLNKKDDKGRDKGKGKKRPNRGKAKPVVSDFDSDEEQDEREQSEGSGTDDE

| SMILES | DC50 [nM] | Dmax [%] |
| --- | --- | --- |
| Cc1ncsc1-c1ccc([C@H](C)NC(=O)[C@@H]2C[C@@H](O)CN2C(=O)[C@@H](c2cc(N3CCC(CN4CCC(O[C@H]5C[C@H](Oc6cc(CCc7cc(-c8ccccc8O)nnc7N)ccn6)C5)CC4)CC3)no2)C(C)C)cc1 [Compound 1, (2S,4R)-4-hydroxy-N-[(1S)-1-[4-(4-methyl-1,3-thiazol-5-yl)phenyl]ethyl]-1-[(2R)-3-methyl-2-{3-[4-({4-[(1r,3r)-3-[(4-{2-[3-amino-6-(2-hydroxyphenyl)pyridazin-4-yl]ethyl}pyridin-2-yl)oxy]cyclobutoxy]piperidin-1-yl}methyl)piperidin-1-yl]-1,2-oxazol-5-yl}butanoyl]pyrrolidine-2-carboxamide] | 2.5 to 10 | > 75 |
| Cc1ncsc1-c1ccc([C@H](C)NC(=O)[C@@H]2C[C@@H](O)CN2C(=O)[C@@H](c2cc(N3CCC(CN4CCC(O[C@H]5C[C@H](Cn6cnc(-c7cn8cc(-c9ccccc9O)nc8nc7N)c6)C5)CC4)CC3)no2)C(C)C)cc1 [Compound 43, (2S,4R)-4-hydroxy-N-[(1S)-1-[4-(4-methyl-1,3-thiazol-5-yl)phenyl]ethyl]-1-[(2R)-3-methyl-2-{3-[4-({4-[(1r,3r)-3-({4-[7-amino-2-(2-hydroxyphenyl)imidazo[1,2-a]pyrimidin-6-yl]-1H-imidazol-1-yl}methyl)cyclobutoxy]piperidin-1-yl}methyl)piperidin-1-yl]-1,2-oxazol-5-yl}butanoyl]pyrrolidine-2-carboxamide] | 2.5 to 10 | > 75 |
| Cc1ncsc1-c1ccc([C@H](C)NC(=O)[C@@H]2C[C@@H](O)CN2C(=O)[C@@H](c2cc(N3CCC(CN4CCC(O[C@H]5C[C@H](N6CCC(CC#Cc7cn8cc(-c9ccccc9O)nc8nc7N)CC6)C5)CC4)CC3)no2)C(C)C)cc1 [Compound 37, (2S,4R)-4-hydroxy-N-[(1S)-1-[4-(4-methyl-1,3-thiazol-5-yl)phenyl]ethyl]-1-[(2R)-3-methyl-2-{3-[4-({4-[(1r,3r)-3-(4-{3-[7-amino-2-(2-hydroxyphenyl)imidazo[1,2-a]pyrimidin-6-yl]prop-2-yn-1-yl}piperidin-1-yl)cyclobutoxy]piperidin-1-yl}methyl)piperidin-1-yl]-1,2-oxazol-5-yl}butanoyl]pyrrolidine-2-carboxamide] | < 2.5 | > 75 |
| CC(C)[C@@H](C(=O)N1C[C@H](O)C[C@H]1C(=O)N[C@@H](C)c1ccc(-c2ccnn2C)cc1)c1cc(N2CCC(CN3CCC(O[C@H]4C[C@H](OCC#Cc5cn6cc(-c7ccccc7O)nc6nc5N)C4)CC3)CC2)no1 [Compound 32] | < 2.5 | > 75 |
| CC(C)[C@@H](C(=O)N1C[C@H](O)C[C@H]1C(=O)N[C@@H](C)c1ccc(-c2ccnn2C)cc1)c1cc(N2CCC(CN3CCC(O[C@H]4C[C@H](C#Cc5cn6cc(-c7ccccc7O)nc6nc5N)C4)CC3)CC2)no1 [Compound 33] | < 2.5 | > 75 |
| Cc1ncsc1-c1ccc([C@H](C)NC(=O)[C@@H]2C[C@@H](O)CN2C(=O)[C@@H](c2cc(N3CCC(CN4CCC(O[C@H]5C[C@H](Oc6cc(N7CCN(c8cc(-c9ccccc9O)nnc8N)CC78COC8)ccn6)C5)CC4)CC3)no2)C(C)C)cc1 [Compound 4, (2S,4R)-4-hydroxy-N-[(1S)-1-[4-(4-methyl-1,3-thiazol-5-yl)phenyl]ethyl]-1-[(2R)-3-methyl-2-{3-[4-({4-[(1r,3r)-3-[(4-{8-[3-amino-6-(2-hydroxyphenyl)pyridazin-4-yl]-2-oxa-5,8-diazaspiro[3.5]nonan-5-yl}pyridin-2-yl)oxy]cyclobutoxy]piperidin-1-yl}methyl)piperidin-1-yl]-1,2-oxazol-5-yl}butanoyl]pyrrolidine-2-carboxamide] | < 2.5 | > 75 |
| Cc1ncsc1-c1ccc([C@H](C)NC(=O)[C@@H]2C[C@@H](O)CN2C(=O)[C@H](c2cc(N3CCC(O[C@H]4C[C@H](OCC#Cc5cn6cc(-c7ccccc7O)nc6nc5N)C4)CC3)no2)C(C)C)cc1 [Compound 34, (2S,4R)-4-hydroxy-N-[(1S)-1-[4-(4-methyl-1,3-thiazol-5-yl)phenyl]ethyl]-1-[(2S)-3-methyl-2-(3-{4-[(1r,3r)-3-({3-[7-amino-2-(2-hydroxyphenyl)imidazo[1,2-a]pyrimidin-6-yl]prop-2-yn-1-yl}oxy)cyclobutoxy]piperidin-1-yl}-1,2-oxazol-5-yl)butanoyl]pyrrolidine-2-carboxamide] | ≥ 30 | – |
| Cc1ncsc1-c1ccc([C@H](C)NC(=O)[C@@H]2C[C@@H](O)CN2C(=O)[C@@H](c2cc(N3CCC(CN4CCC(OCCn5cnc(-c6cn7cc(-c8ccccc8O)nc7nc6N)c5)CC4)CC3)no2)C(C)C)cc1 [Compound 38, (2S,4R)-1-[(2R)-2-[3-(4-{[4-(2-{4-[7-amino-2-(2-hydroxyphenyl)imidazo[1,2-a]pyrimidin-6-yl]-1H-imidazol-1-yl}ethoxy)piperidin-1-yl]methyl}piperidin-1-yl)-1,2-oxazol-5-yl]-3-methylbutanoyl]-4-hydroxy-N-[(1S)-1-[4-(4-methyl-1,3-thiazol-5-yl)phenyl]ethyl]pyrrolidine-2-carboxamide] | 2.5 to 10 | > 75 |
| CC(C)[C@@H](C(=O)N1C[C@H](O)C[C@H]1C(=O)N[C@@H](C)c1ccc(-c2ccnn2C)cc1)c1cc(OCCN2CCN(Cc3ccc(C/C=C/c4cn5cc(-c6ccccc6O)nc5nc4N)cc3)CC2)no1 [Compound 46, (2S,4R)-1-[(2R)-2-(3-{2-[4-({4-[(2E)-3-[7-amino-2-(2-hydroxyphenyl)imidazo[1,2-a]pyrimidin-6-yl]prop-2-en-1-yl]phenyl}methyl)piperazin-1-yl]ethoxy}-1,2-oxazol-5-yl)-3-methylbutanoyl]-4-hydroxy-N-[(1S)-1-[4-(1-methyl-1H-pyrazol-5-yl)phenyl]ethyl]pyrrolidine-2-carboxamide] | 2.5 to 10 | > 75 |
| CC(C)[C@@H](C(=O)N1C[C@H](O)C[C@H]1C(=O)N[C@@H](C)c1ccc(-c2c(F)cnn2C)cc1)c1cc(N2CCC(CN3CCC(O[C@H]4C[C@H](C#Cc5cn6cc(-c7ccccc7O)nc6nc5N)C4)CC3)CC2)no1 [Compound 39, (2S,4R)-N-[(1S)-1-[4-(4-fluoro-1-methyl-1H-pyrazol-5-yl)phenyl]ethyl]-4-hydroxy-1-[(2R)-3-methyl-2-{3-[4-({4-[(1r,3r)-3-{2-[7-amino-2-(2-hydroxyphenyl)imidazo[1,2-a]pyrimidin-6-yl]ethynyl}cyclobutoxy]piperidin-1-yl}methyl)piperidin-1-yl]-1,2-oxazol-5-yl}butanoyl]pyrrolidine-2-carboxamide] | < 2.5 | > 75 |
| Cc1nccn1-c1ccc([C@H](C)NC(=O)[C@@H]2C[C@@H](O)CN2C(=O)[C@@H](c2cc(OCCN3CCN(CCOc4cc(N5CCN(c6cc(-c7ccccc7O)nnc6N)CC56COC6)ccn4)CC3)no2)C(C)C)cc1 [Compound 20, (2S,4R)-1-[(2R)-2-{3-[2-(4-{2-[(4-{8-[3-amino-6-(2-hydroxyphenyl)pyridazin-4-yl]-2-oxa-5,8-diazaspiro[3.5]nonan-5-yl}pyridin-2-yl)oxy]ethyl}piperazin-1-yl)ethoxy]-1,2-oxazol-5-yl}-3-methylbutanoyl]-4-hydroxy-N-[(1S)-1-[4-(2-methyl-1H-imidazol-1-yl)phenyl]ethyl]pyrrolidine-2-carboxamide] | 2.5 to 10 | > 75 |
